Here are results for one substance from patent US20240226319A1, “EGFR TARGETING FC ANTIGEN BINDING FRAGMENT-DRUG CONJUGATES” (MERCK PATENT GMBH, priority 2021, published 2024).

Data set [1] relates to EGFR positive (MDA MB 468 and A431) and EGFR negative (MCF 7) cells. Briefly: Cellular binding analysis by flow cytometry. The format is cell-based, human. Conditions: 100 nM, 60 min at 4° C., AF488-labeled detection antibody.
A short description of data set [2]: Thermal unfolding by nanoDSF. The format is physicochemical. To be noted: PBS pH 6.8, 20 to 95° C. at 1° C./min. On the procedure: FIG. 10 Thermal stability of Fcabs and huFc control molecule. The first derivative of thermal unfolding curves (A) as well as the unfolding transition midpoints (Tm) (B) are shown. To determine thermal unfolding, Fcabs and huFc (PBS pH 6.8) were loaded into nanoDSF grade standard capillaries which were then transferred into a Prometheus NT.PLEX nanoDSF (NanoTemper Technologies) instrument. Samples were subjected to a linear thermal ramp from 20° C. to 95° C. at a slope of 1° C./min with simultaneous recording of fluorescence at 350 and 330 nm. Unfolding transition midpoints (Tm) were determined from the first derivative of the fluorescence ratio 350 nm/330 nm. All samples were measured in duplicates. n.d.—not detected
As a negative control, we included an unmodified human Fc (huFc) fragment. As EGFR-binding references, a Cetuximab-based full length IgG (C-IgG) and a Cetuximab-derived Fab (C-Fab) fragment, both equipped with a sortase A (SrtA) recognition motif (LPETG) at the C-terminal end of the light chain, were included. […] Moreover, we evaluated functional and selective cellular binding of the purified constructs (FIG. 11, FIG. 12). […] To ensure comparability between individual fluorescence intensities resulting from differently labeled constructs, the fluorescence signals were normalized. […]
(Differential scanning fluorimetry follows unfolding on heating by fluorescence.)

As for “huFc: Modified human IgG1 Fc fragment (D265A), negative control, SEQ ID No. 7”, in data set [1], the cellular binding entry is reported as “do not show any binding”. For the same substance, in data set [2], the “unfolding transition midpoint Tm,1” value was determined as 66 °C.
